Assay results reported in patent US20090324742A1, “Peham dendrimers as excipients” (priority 2006, published 2009).
Converted amounts (≈) assume the structure as drawn.

Legend:
[1] = Aqueous solubility of paclitaxel with PEHAM dendritic polymer (HPLC); type: physicochemical; conditions: DI water without dendrimer, thermodynamic from solid
Experimental: The sample was subjected to brief ultrasonication and heating at 50° C. for 10 mins., followed by overnight shaking at RT. The sample was then centrifuged for 5 mins. and the paclitaxel content measured by HPLC.

[2] = Solubility enhancement of vitamin D3 by PEHAM dendritic polymers (HPLC); type: physicochemical; conditions: pure Active Material control without dendrimer; detection limit
Experimental: An excess of the cosmetic and nutrient Active Material, vitamin D3, (Sigma) was added to vials containing PEHAM dendritic polymers G=1.0 and G=2.0 with PETGE or TMPTGE cores and amine surfaces, partially PEGylated (25% PEG-550) amine surfaces, or carboxylate surfaces, dissolved in 20% (v/v) aqueous methanol at 1 wt % concentrations. These suspensions were briefly ultrasonicated in a water bath at RT, then incubated overnight at 32° C. and 100 rpm in a shaking water bath, and allowed to equilibrate at RT. The suspensions were filtered through a 0.2-μm Nylon syringe filter to remove not encapsulated Active Material. Solvent was removed and the residue redispersed in DI water. The samples were analyzed for dendrimer-associated vitamin D3 by HPLC. Association results are expressed in ng Active Material per mL solution. […] The pure Active Material as control remains below detection limit of 50 ng/mL.

solubility [1] [µg/mL] | SMILES | vitamin D3 solubility [2] [µg/mL]
0.3 (≈ 0.351 µM) | CC(=O)O[C@H]1C(=O)[C@@]2(C)[C@H]([C@H](OC(=O)c3ccccc3)[C@]3(O)C[C@H](OC(=O)[C@H](O)[C@@H](NC(=O)c4ccccc4)c4ccccc4)C(C)=C1C3(C)C)[C@]1(OC(C)=O)CO[C@@H]1C[C@@H]2O [paclitaxel] | 
 | C=C1CC[C@H](O)C/C1=C/C=C1\CCC[C@]2(C)[C@@H]([C@H](C)CCCC(C)C)CC[C@@H]12 [vitamin D3] | < 0.05
